Experimental data published in US11214594B2, “Antimicrobial peptide having synergistic antibacterial effect with antibiotics on multidrug resistant bacteria, and use thereof” (priority 2016, dated 2022).
Values after ≈ are worked out from the molar mass of the structure shown. Where a SMILES comes first, the peptide text is derived from it. [ ]: non-standard residue; d: D form.

How the values were obtained:
MDRST 8009 = assay type: cell-based, Salmonella typhimurium; conditions: agent alone
Summary of the method: (§1)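 Broth microdilution in MH medium: strains diluted to 2×10^6 CFU were mixed with equal volumes of twofold serial peptide dilutions in MH medium. MIC was taken as the lowest peptide concentration preventing bacterial growth.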

MDRAB 12036 = assay type: cell-based, Acinetobacter baumannii
Summary of the method: as §1

MDRPA 2003 = assay type: cell-based, Pseudomonas aeruginosa
Summary of the method: as §1

MDRPA 2002 = assay type: cell-based, Pseudomonas aeruginosa
Summary of the method: as §1

MDREC 1229 [1] = test: microbe, parasite or virus in culture; assay type: cell-based, Escherichia coli
Summary of the method: as §1

E. coli = test: microbe, parasite or virus in culture; assay type: cell-based, Escherichia coli; conditions: 16 h
Summary of the method: as §1

[2] = system: multi-drug resistant bacteria; test: MIC, summary statements for multi-drug resistant bacteria; assay type: cell-based
Procedure: For the antibacterial activity, a minimal inhibitory concentration (MIC) of a peptide in which fungus bodies were not split in an MH medium with sufficient nutrients was measured.
Specifically, the strains described in the following [Table 2] were purchased and diluted with an MH medium such that the number of bacteria was 2×10^6 colony-forming units (CFUs), 100 μl of each of the diluted strains was aliquoted into a 96-well microtiter plate, and then 100 μl of a peptide solution diluted with the MH medium (solution diluted stepwise at 2: 1) was added to each well.

MDREC 1229 [3] = test: MIC of antibiotic during combined treatment with antimicrobial peptide; assay type: cell-based, Escherichia coli
Summary of the method: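 Strains in MH medium at 2×10^6 CFU/ml were mixed with peptide diluted stepwise (2:1) from its MIC, then antibiotic dilutions in MH medium were added to give the antibiotic MIC. The reversed set-up, peptide titrated against fixed antibiotic, gave the peptide MIC.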

MRSA 3114 = assay type: cell-based, Staphylococcus aureus; conditions: 3114
Summary of the method: as §1

MRSA 3126 = assay type: cell-based, Staphylococcus aureus; conditions: 3126
Summary of the method: as §1

MDREC 1238 = assay type: cell-based, Escherichia coli
Summary of the method: as §1

S. typhimurium = test: microbe, parasite or virus in culture; assay type: cell-based, Salmonella typhimurium
Summary of the method: as §1

B. subtilis = test: microbe, parasite or virus in culture; assay type: cell-based, Bacillus subtilis
Summary of the method: as §1

S. aureus = test: microbe, parasite or virus in culture; assay type: cell-based, Staphylococcus aureus
Summary of the method: as §1

[4] = peptide treatment concentration 1 μg/ml
[5] = peptide treatment concentration 2 μg/ml
[6] = peptide treatment concentration 4 μg/ml
[7] = peptide treatment concentration 6 μg/ml
[8] = peptide treatment concentration 8 μg/ml
[9] = peptide treatment concentration 16 μg/ml
[10] = peptide treatment concentration 32 μg/ml
[11] = peptide treatment concentration 64 μg/ml

Row | Compound | Minimal inhibitory concentration MIC (MDRST 8009) [µg/mL] | Minimal inhibitory concentration MIC (MDRAB 12036) [µg/mL] | Minimal inhibitory concentration MIC (MDRPA 2003) [µg/mL] | Minimal inhibitory concentration MIC (MDRPA 2002) [µg/mL] | Minimal inhibitory concentration MIC (MDREC 1229 [1]) [µg/mL] | Peptide MIC, peptide alone (MDREC 1229 [1]) [µg/mL] | Minimal inhibitory concentration MIC (E. coli) [µg/mL] | Antibacterial activity relative to PapMA-1 [2] | Antibiotic MIC, Erythromycin (MDREC 1229 [3]; [4]) [µg/mL] | Antibiotic MIC, Linezolid (MDREC 1229 [3]; [4]) [µg/mL] | Antibiotic MIC, Vancomycin (MDREC 1229 [3]; [4]) [µg/mL] | Antibiotic MIC, Erythromycin (MDREC 1229 [3]; [5]) [µg/mL] | Antibiotic MIC, Linezolid (MDREC 1229 [3]; [5]) [µg/mL] | Antibiotic MIC, Vancomycin (MDREC 1229 [3]; [5]) [µg/mL] | Antibiotic MIC, Erythromycin (MDREC 1229 [3]; [6]) [µg/mL] | Antibiotic MIC, Linezolid (MDREC 1229 [3]; [6]) [µg/mL] | Antibiotic MIC, Vancomycin (MDREC 1229 [3]; [6]) [µg/mL] | Antibiotic MIC, Erythromycin (MDREC 1229 [3]; [7]) [µg/mL] | Antibiotic MIC, Linezolid (MDREC 1229 [3]; [7]) [µg/mL] | Antibiotic MIC, Vancomycin (MDREC 1229 [3]; [7]) [µg/mL] | further results
1 | CC[C@H](C)[C@H](NC(=O)[C@H](CCCCN)NC(=O)[C@H](Cc1c[nH]c2ccccc12)NC(=O)[C@@H](N)CCCNC(=N)N)C(=O)N[C@@H](Cc1ccccc1)C(=O)N[C@@H](CCCCN)C(=O)N[C@@H](CCCCN)C(=O)N[C@H](C(=O)N[C@H](CC(C)C)C(=O)N[C@@H](CCCCN)C(=O)N[C@@H](CC(C)C)C(=O)N[C@@H](CC(C)C)C(=O)N[C@@H](Cc1c[nH]cn1)C(=O)N[C@@H](CCCCN)C(=O)N[C@@H](C)C(=O)N[C@@H](CCCCN)C(=O)N[C@@H](CCCCN)C(=O)N[C@@H](Cc1c[nH]c2ccccc12)C(N)=O)[C@@H](C)CC [PapMA-22, RWK IFK KIl KLL HKA KKW-NH2] (H-RWKIFKKI[dL]KLLHKAKKW-NH2; N-terminus assumed) | 32 (≈ 13.5 µM) | 32 (≈ 13.5 µM) | 32 (≈ 13.5 µM) | 32 (≈ 13.5 µM) | 32 (≈ 13.5 µM) | 32 | 32 (≈ 13.5 µM) | twice to four times higher | 128 | >128 | >128 | 32 | >128 | >128 | 32 | 128 | >128 | 16 | 64 | >128 | Antibiotic MIC, Erythromycin (MDREC 1229 [3]; [8]): 4 µg/mL; Antibiotic MIC, Linezolid (MDREC 1229 [3]; [8]): 32 µg/mL; Antibiotic MIC, Vancomycin (MDREC 1229 [3]; [8]): 64 µg/mL; Antibiotic MIC, Erythromycin (MDREC 1229 [3]; [9]): 2 µg/mL; Antibiotic MIC, Linezolid (MDREC 1229 [3]; [9]): 16 µg/mL; Antibiotic MIC, Vancomycin (MDREC 1229 [3]; [9]): 32 µg/mL; Antibiotic MIC, Erythromycin (MDREC 1229 [3]; [10]): 0 µg/mL; Antibiotic MIC, Linezolid (MDREC 1229 [3]; [10]): 0 µg/mL; Antibiotic MIC, Vancomycin (MDREC 1229 [3]; [10]): 0 µg/mL; Antibiotic MIC, Erythromycin (MDREC 1229 [3]; [11]): 0 µg/mL; Antibiotic MIC, Linezolid (MDREC 1229 [3]; [11]): 0 µg/mL; Antibiotic MIC, Vancomycin (MDREC 1229 [3]; [11]): 0 µg/mL; Minimal inhibitory concentration MIC (MRSA 3114): >128 µg/mL; Minimal inhibitory concentration MIC (MRSA 3126): >128 µg/mL; Minimal inhibitory concentration MIC (MDREC 1238): 32 µg/mL (≈ 13.5 µM); Minimal inhibitory concentration MIC (S. typhimurium): 32 µg/mL (≈ 13.5 µM); Minimal inhibitory concentration MIC (B. subtilis): >128 µg/mL; Minimal inhibitory concentration MIC (S. aureus): >128 µg/mL
2 | CC[C@H](C)[C@H](NC(=O)[C@H](CCCCN)NC(=O)[C@H](Cc1c[nH]c2ccccc12)NC(=O)[C@@H](N)CCCNC(=N)N)C(=O)N[C@@H](Cc1ccccc1)C(=O)N[C@@H](CCCCN)C(=O)N[C@@H](CCCCN)C(=O)N[C@H](C(=O)N1CCC[C@H]1C(=O)N[C@@H](CCCCN)C(=O)N[C@@H](Cc1ccccc1)C(=O)N[C@@H](CC(C)C)C(=O)N[C@@H](Cc1c[nH]cn1)C(=O)N[C@@H](CCC(=O)O)C(=O)N[C@@H](C)C(=O)N[C@@H](CCCCN)C(=O)N[C@@H](CCCCN)C(=O)N[C@@H](Cc1c[nH]c2ccccc12)C(N)=O)[C@@H](C)CC [PapMA-14, RWK IFK KIP KFL HEA KKW-NH2] (H-RWKIFKKIPKFLHEAKKW-NH2; N-terminus assumed) | 32 (≈ 13.4 µM) | 16 (≈ 6.71 µM) | 64 (≈ 26.9 µM) | 64 (≈ 26.9 µM) | 16 (≈ 6.71 µM) | 16 | 8 (≈ 3.36 µM) | twice to four times higher | 128 | >128 | >128 | 32 | 128 | >128 | 8 | 32 | 128 | 4 | 16 | 32 | Antibiotic MIC, Erythromycin (MDREC 1229 [3]; [8]): 1 µg/mL; Antibiotic MIC, Linezolid (MDREC 1229 [3]; [8]): 16 µg/mL; Antibiotic MIC, Vancomycin (MDREC 1229 [3]; [8]): 8 µg/mL; Antibiotic MIC, Erythromycin (MDREC 1229 [3]; [9]): 0 µg/mL; Antibiotic MIC, Linezolid (MDREC 1229 [3]; [9]): 0 µg/mL; Antibiotic MIC, Vancomycin (MDREC 1229 [3]; [9]): 0 µg/mL; Antibiotic MIC, Erythromycin (MDREC 1229 [3]; [10]): 0 µg/mL; Antibiotic MIC, Linezolid (MDREC 1229 [3]; [10]): 0 µg/mL; Antibiotic MIC, Vancomycin (MDREC 1229 [3]; [10]): 0 µg/mL; Antibiotic MIC, Erythromycin (MDREC 1229 [3]; [11]): 0 µg/mL; Antibiotic MIC, Linezolid (MDREC 1229 [3]; [11]): 0 µg/mL; Antibiotic MIC, Vancomycin (MDREC 1229 [3]; [11]): 0 µg/mL; Minimal inhibitory concentration MIC (MRSA 3114): >128 µg/mL; Minimal inhibitory concentration MIC (MRSA 3126): >128 µg/mL; Minimal inhibitory concentration MIC (MDREC 1238): 16 µg/mL (≈ 6.71 µM); Minimal inhibitory concentration MIC (S. typhimurium): 16 µg/mL (≈ 6.71 µM); Minimal inhibitory concentration MIC (B. subtilis): >128 µg/mL; Minimal inhibitory concentration MIC (S. aureus): >128 µg/mL
